Laboratory results reported in PMC6348446 (Journal of Medicinal Chemistry, 2018).
Blank lines part the entries; values can stand above or below the molecule they belong to.

How the values were obtained:
[1] = molecular target: T1, BRD9 (Homo sapiens, UniProt Q9H8M2); experiment: Western blot of BRD9 levels in RI-1 cells after compound treatment; format: cell-based; conditions: for BRD9 degradation: 4 h
T1 construct: Western blot analysis of BRD9 and BRD7 levels after treatment of HeLa cells; endogenous in cells; host or cells: HeLa
T1 sequence (Q9H8M2 1-597): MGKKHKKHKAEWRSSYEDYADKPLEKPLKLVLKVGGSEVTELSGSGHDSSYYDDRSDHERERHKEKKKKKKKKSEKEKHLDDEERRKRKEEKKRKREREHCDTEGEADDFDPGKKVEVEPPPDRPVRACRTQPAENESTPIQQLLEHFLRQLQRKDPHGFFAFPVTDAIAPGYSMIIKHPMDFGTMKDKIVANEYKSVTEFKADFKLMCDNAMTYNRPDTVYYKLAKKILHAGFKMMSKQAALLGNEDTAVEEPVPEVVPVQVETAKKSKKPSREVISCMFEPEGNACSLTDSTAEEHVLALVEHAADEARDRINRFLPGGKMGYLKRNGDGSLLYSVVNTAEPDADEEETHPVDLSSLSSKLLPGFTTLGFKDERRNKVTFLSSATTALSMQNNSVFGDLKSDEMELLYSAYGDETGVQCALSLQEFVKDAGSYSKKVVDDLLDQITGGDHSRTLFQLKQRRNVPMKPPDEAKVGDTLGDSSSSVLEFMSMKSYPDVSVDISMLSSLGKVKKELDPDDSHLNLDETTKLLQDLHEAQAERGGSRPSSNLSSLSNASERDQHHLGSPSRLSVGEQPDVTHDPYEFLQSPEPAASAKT

[2] = molecular target: T2, BRD7 (Homo sapiens, UniProt Q9NPI1); experiment: Western blot of BRD7 levels in HeLa cells after compound treatment; format: cell-based; conditions: 1 μM compound; for BRD7 degradation: HeLa cells
T2 construct: Western blot analysis of BRD9 and BRD7 levels after treatment of HeLa cells; endogenous in cells; host or cells: HeLa
T2 sequence (Q9NPI1 1-651): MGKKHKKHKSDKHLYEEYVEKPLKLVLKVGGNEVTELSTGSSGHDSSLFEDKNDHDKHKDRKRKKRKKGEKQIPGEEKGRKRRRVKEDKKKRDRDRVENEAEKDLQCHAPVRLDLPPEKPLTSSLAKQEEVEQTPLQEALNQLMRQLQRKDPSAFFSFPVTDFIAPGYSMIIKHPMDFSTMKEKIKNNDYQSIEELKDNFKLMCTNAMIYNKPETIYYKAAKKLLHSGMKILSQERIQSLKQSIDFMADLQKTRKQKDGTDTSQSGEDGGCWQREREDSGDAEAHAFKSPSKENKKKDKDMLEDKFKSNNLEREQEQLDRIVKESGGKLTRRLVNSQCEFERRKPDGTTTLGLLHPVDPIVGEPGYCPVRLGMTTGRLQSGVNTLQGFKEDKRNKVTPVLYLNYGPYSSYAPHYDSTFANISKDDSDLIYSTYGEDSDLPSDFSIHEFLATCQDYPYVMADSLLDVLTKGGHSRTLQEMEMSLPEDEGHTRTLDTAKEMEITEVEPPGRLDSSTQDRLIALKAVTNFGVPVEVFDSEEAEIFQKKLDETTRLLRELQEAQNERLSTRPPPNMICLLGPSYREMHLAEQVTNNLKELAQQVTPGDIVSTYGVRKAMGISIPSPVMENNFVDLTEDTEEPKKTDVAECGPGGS
Procedure: HeLa and Hek293 cells were seeded at either 0.3 × 10^6 or 0.5 × 10^6 cells per well in 6-well plate in 2 mL of medium. At 80% confluency, cells were treated with compounds at the desired concentration, with final DMSO concentration of 0.1% v/v. Cells were incubated at 37 °C and 5% of CO2 for the desired time before harvesting. For protein extraction from adherent cells, cells were washed twice with DPBS (Gibco) and lysed with RIPA buffer (Sigma-Aldrich), supplemented with cOmplete Mini EDTA-free protease inhibitor cocktail (Roche). Insoluble material was removed by centrifugation at 14 000 rpm for 15 min at 4 °C. Supernatant was collected and protein concentration was quantified by Bradford assay (Thermo Scientific no. 23200, mean of two replicates). For RI-1 cells, (1–1.5) × 10^6 cells/mL were seeded in 6-well plate in 2 mL of medium. The day after, cells were treated with compounds at the desired concentration, with final DMSO concentration of 0.1% v/v. Before harvesting, cells were incubated at 37 °C and 5% CO2 for the desired time. Cells were washed twice with DPBS (Gibco) and lysed with RIPA buffer (Sigma-Aldrich), supplemented with cOmplete Mini EDTA-free protease inhibitor cocktail (Roche). Lysates were sonicated (10 s) and centrifuged at 14 000 rpm for 20 min at 4 °C. Supernatant was collected, and protein concentration was quantified by Bradford assay (mean of two replicates). For EOL-1 and A-204 cell line, 20 000 cells were seeded in 300 μL per well in a 24-well plate and incubated at 37 °C overnight. Compounds were added from DMSO stock solution using a digital dispenser D300 (Tecan), normalizing for added DMSO, and cells were incubated at 37 °C for 18 h. Medium was removed, and cells were washed with PBS and lysed in 80 μL of lysis buffer (1% Triton, 350 mM KCl, 10 mM Tris, pH 7,4, phosphatase-protease inhibitor cocktail (Thermo Scientific no. 1861281), 10 mM DTT, Benzonase 0.5 μL/ml (Novagen no. 70746 10KU, 25 U/μL)) for 30 min on ice before insoluble debris was pelleted by centrifugation.
Proteins were resolved by SDS–PAGE on NuPage 4–12% Bis-Tris Midi Gel (Invitrogen) and transferred to Amersham Protran 0.45 NC nitrocellulose membrane (GE Healthcare) using wet transfer. The membrane was blocked with 5% w/v milk in Tris-buffered saline (TBS) with 0.1% w/v Tween-20. The following primary antibodies at the given concentration were used: anti β-actin (Cell Signaling Technology, 4970S, 13E5) 1:2000, anti-Brd9 (Bethyl A303-781A) 1:1000, anti-Brd7 (Bethyl A302-304A) 1:1000, VHL rabbit Ab (Cell Signaling Technology, no. 68547S) 1:1000, anti-CRBN (Novus Bio, NBP 1-9-1810) 1:1000, anti-actin hFAB rhodamine antibody, Bio-Rad, no. 12004164. Following incubation with horseradish peroxidase-conjugated secondary antibody (Cell Signaling Technology) or IRDye secondary antibody (Licor), bands were developed using Amersham ECL Prime Western blotting detection kit on Amersham Hyperfilm ECL film (Amersham) or ChemiDoc imaging system (Bio-Rad). ImageJ software was used for band quantification, and the last was reported as relative amount as ratio of each protein band relative to the lane’s loading control. Then the values obtained were normalized to 0.1% DMSO vehicle control. Alternatively, protein levels were determined on a WES capillary electrophoresis instrument (Proteinsimple) using a BRD9 antibody (Bethyl A303-781A) and a GAPDH antibody (Abcam no. ab9485) for normalization. DC50 and half-lives were determined by assuming a linear model between the two data points across 50% protein level mark.

BRD9 degradation ([1]; RI-1 cells, 100 nM): no degradation
Compound: COc1cc(-c2cn(C)c(=O)c3cnccc23)cc(OC)c1CN1CCN(CCCCCOc2cc(-c3scnc3C)ccc2CNC(=O)[C@@H]2C[C@H](O)CN2C(=O)[C@@H](NC(=O)C2(F)CC2)C(C)(C)C)CC1 [cisVZ185]

remaining activity at 1 µM ([1]; 2 h, Table 3, % of total protein remaining relative to 0.1% DMSO vehicle, 1 μM compound, RI-1): 100% | decrease of BRD9 level ([1]; RI-1 cells, 100 nM, 30 min): more than 50% | BRD9 degradation ([1]; RI-1 cells, 100 nM): more than 90% | concentration window of maximal protein degradation of BRD9 ([1]; RI-1 cells, 2 and 8 h): 10 to 100 nM
Compound: COc1cc(-c2cn(C)c(=O)c3cnccc23)cc(OC)c1CN1CCN(CCCCCOc2cc(-c3scnc3C)ccc2CNC(=O)[C@@H]2C[C@@H](O)CN2C(=O)[C@@H](NC(=O)C2(F)CC2)C(C)(C)C)CC1 [Compound 51, (2S,4R)-N-(2-((5-(4-(2,6-Dimethoxy-4-(2-methyl-1-oxo-1,2-dihydro-2,7-naphthyridin-4-yl)benzyl)piperazin-1-yl)pentyl)oxy)-4-(4-methylthiazol-5-yl)benzyl)-1-((S)-2-(1-fluorocyclopropane-1-carboxamido)-3,3-dimethylbutanoyl)-4-hydroxypyrrolidine-2-carboxamide]

BRD7 degradation ([2]; 4 h): at most 20% | BRD7 degradation ([2]; 16 h): ≤ 30%
Compound: COc1cc(-c2cn(C)c(=O)c3cnccc23)cc(OC)c1CN1CCN(CCOCCOCC(=O)N[C@H](C(=O)N2C[C@H](O)C[C@H]2C(=O)NCc2ccc(-c3scnc3C)cc2)C(C)(C)C)CC1 [Compound 5, (2S,4R)-1-((S)-2-(2-(2-(2-(4-(2,6-Dimethoxy-4-(2-methyl-1-oxo-1,2-dihydro-2,7-naphthyridin-4-yl)benzyl)piperazin-1-yl)ethoxy)ethoxy)acetamido)-3,3-dimethylbutanoyl)-4-hydroxy-N-(4-(4-methylthiazol-5-yl)benzyl)pyrrolidine-2-carboxamide]

remaining activity at 1 µM ([2]; 4 h, Table 2, % of total protein remaining relative to 0.1% DMSO vehicle, HeLa cell lysates, read-out: BRD7 4 h (%)): 97%
Compound: COc1cc(-c2cn(C)c(=O)c3cnccc23)cc(OC)c1CN1CCN(CCOCCOCCOc2cc(-c3scnc3C)ccc2CNC(=O)[C@@H]2C[C@@H](O)CN2C(=O)[C@@H](NC(=O)C2(F)CC2)C(C)(C)C)CC1 [Compound 26, (2S,4R)-N-(2-(2-(2-(2-(4-(2,6-Dimethoxy-4-(2-methyl-1-oxo-1,2-dihydro-2,7-naphthyridin-4-yl)benzyl)piperazin-1-yl)ethoxy)ethoxy)ethoxy)-4-(4-methylthiazol-5-yl)benzyl)-1-((S)-2-(1-fluorocyclopropane-1-carboxamido)-3,3-dimethylbutanoyl)-4-hydroxypyrrolidine-2-carboxamide]
